Measured values from US20250228887A1, “OPHTHALMIC COMPOSITION” (ROHTO PHARMACEUTICAL CO., LTD., priority 2021, published 2025).

What was measured:
[1] = system: rabbits; assay: Drought stress test using rabbits (first invention, Test Example 1); format: in vivo, Japanese white rabbits; details: 0.5 w/v % or 3 w/v % in saline, 100 μL per eye, eyelids open 3 hours; compared with Mw about 25,000; **p<0.01 Tukey; FIG. 1
Procedure: Each test substance was prepared by dissolving sodium chondroitin sulfate having a weight-average-molecular weight of about 25,000 (commercially available from Maruha Nichiro Corporation; over-the-counter sodium chondroitin sulfate) or sodium chondroitin sulfate having a weight-average-molecular weight of about 56,000 (commercially available from Seikagaku Corporation; Grade N-K) so that the content was 0.5 w/v % or 3 w/v %, respectively, in a saline (commercially available from Otsuka Pharmaceutical Factory, Inc.).
According to the method used by Nagano et al. (New Ophthalmology, 13(2), 267-270, 1996), rabbits divided into 5 groups (n=5) (Japanese white rabbits (commercially available from Kitayama Labes Co. Ltd.)) were subjected to general anesthesia, and then gloves with ring-shaped fingers were put on their left and right eyeballs and the eyelids were forcibly opened. […] After the cornea was removed from the ocular surface, the methylene blue dye was extracted, and the absorbance was measured using a microplate reader Multiskan GO (commercially available from Thermo Fisher Scientific) at 660 nm. Here, eye dryness caused corneal damage, and increased the amount of dye adhered to the cornea surface, and thus it could be evaluated that the higher the absorbance value, the drier the eyes were.

[2] = system: human corneal epithelial cell line HCE-T cells; assay: Cell dry test (first invention, Test Example 13); format: cell-based; details: 8, 13, 14 vs test solution 4; 11, 12 vs test solution 5; 1% vs 0.5%
Procedure: Ophthalmic compositions were prepared according to a general method using the formulations shown in Table 12 and used as test solutions. The units of the components in Table 12 are w/v % unless specified in the table. 100 μL of human corneal epithelial cell line HCE-T cells at a concentration of 1×10^5 cells/mL was seeded in each well in a 96-well plate (commercially available from Corning Inc.), and cultured in a CO2 incubator set at 37° C., a humidity of 90%, and a concentration of 5% CO2 until the cells became confluent. […] After each ophthalmic composition was removed by suction from each well, drought stress was applied by leaving it in a clean bench for 20 minutes, and the number of viable cells was then evaluated. In order to evaluate the number of viable cells, 10 μL of a cell number measurement reagent (Cell counting kit-8, commercially available from Dojindo Molecular Technologies, Inc.) per 100 μL of the medium was put into each well, and culturing was performed under conditions of 37° C., 5% CO2, and a humidity of 90% for 2 to 3 hours, and measurement was then performed using an absorbance meter (commercially available from MOLECULAR DEVICES) at 450 nm. Here, the higher the value of the absorbance, the greater the number of viable cells.

For sodium chondroitin sulfate, the “absorbance at 660 nm of methylene blue dye extracted from the cornea (corneal damage caused by eye dryness), in words” value [1] was “significantly lower absorbance” and the “number of viable cells after drought stress, comparison in words” value [2] was “the number of viable cells significantly increased at 1%”.
